The values that follow come from ChEMBL document CHEMBL5390199, “Discovery of novel N-aryl-2-trifluoromethyl-quinazoline-4-amine derivatives as the inhibitors of tubulin polymerization in leukemia cells” (Eur J Med Chem, 2023).

The subject of series [1] is HeLa. The series can be described thus: Cytotoxicity against human HeLa cells assessed as inhibition of cell growth incubated for 48 hrs by MTT assay. In kind it is functional, cell-based. Background: Formazan colour is commonly taken as a measure of viable cells.
Series [2] relates to K562. The series can be described thus: Cytotoxicity against human K562 cells assessed as inhibition of cell growth incubated for 48 hrs by MTT assay. In kind it is functional, cell-based. The settings on record: K562, 48 h.
The test system of series [3] is LNCaP. The series can be described thus: Cytotoxicity against human LNCaP cells assessed as inhibition of cell growth incubated for 48 hrs by MTT assay. In kind it is functional, cell-based.
Series [4] deals with HEL. The experiment in a line: Cytotoxicity against human HEL cells assessed as inhibition of cell growth incubated for 48 hrs by MTT assay. In kind it is functional, cell-based.
Series [5] deals with HUVEC. The series can be described thus: Antiangiogenic activity against human HUVEC cells assessed as inhibition of cell migration at 0.5 uM measured after 24 hrs by scratch wound healing assay. In kind it is functional, cell-based.
Series [6] deals with K562. The series can be described thus: Induction of cell cycle arrest in human K562 cells assessed as reduction in accumulation of cells at S phase incubated for 12 hrs by flow cytometry. In kind it is functional, cell-based.
Series [7] concerns HEL. The series can be described thus: Induction of cell cycle arrest in human HEL cells assessed as reduction in accumulation of cells at S phase incubated for 12 hrs by flow cytometry. In kind it is functional, cell-based. (In general: A flow cytometer gives signals particle by particle.)
Series [8] is described as follows: Cytotoxicity against human L02 cells assessed as inhibition of cell growth incubated for 48 hrs by MTT assay. In kind it is toxicity, cell-based.
In series [9] the test system is HEL. The experiment in a line: Induction of cell cycle arrest in human HEL cells assessed as reduction in accumulation of cells at G0/G1 phase incubated for 12 hrs by flow cytometry. In kind it is functional, cell-based.
In series [10] the test system is K562. The experiment in a line: Induction of cell cycle arrest in human K562 cells assessed as reduction in accumulation of cells at G0/G1 phase incubated for 12 hrs by flow cytometry. In kind it is functional, cell-based.
A short description of series [11]: Selectivity index, ratio of IC50 for cytotoxicity against human L02 cells to IC50 for cytotoxicity against human K562 cells. In kind it is toxicity, cell-based. The settings on record: L02 cells and K562 cells, read-out: Ratio IC50.
Series [12] deals with K562. The experiment in a line: Induction of apoptosis in human K562 cells at 0.5 uM incubated for 48 hrs by annexin V-FITC/propidium iodide staining based flow cytometry relative to control. In kind it is functional.
Series [13] deals with K562. The series can be described thus: Induction of morphological changes in human K562 cells by fluorescence microscopic analysis. In kind it is functional, cell-based.
Series [14] has as its system HEL. The experiment in a line: Induction of morphological changes in human HEL cells by fluorescence microscopic analysis. In kind it is functional, cell-based.
For series [15], the system named is K562. The experiment in a line: Induction of cell cycle arrest in human K562 cells assessed as increase in accumulation of cells at G2/M phase incubated for 12 hrs by flow cytometry. In kind it is functional, cell-based.
Series [16] relates to HEL. The series can be described thus: Induction of cell cycle arrest in human HEL cells assessed as increase in accumulation of cells at G2/M phase incubated for 12 hrs by flow cytometry. In kind it is functional, cell-based.
A short description of series [17]: Selectivity index, ratio of IC50 for cytotoxicity against human L02 cells to IC50 for cytotoxicity against human HEL cells.
In series [18] the test system is HEL. The experiment in a line: Induction of apoptosis in human HEL cells at 0.5 uM incubated for 48 hrs by annexin V-FITC/propidium iodide staining based flow cytometry relative to control. In kind it is functional.
For series [19], the target named is T1, Tubulin (Homo sapiens) (UniProt P68371+Q9H4B7+P0DPH7+P68366+Q13509+Q71U36+P04350+Q3ZCM7+P07437+P68363+Q9BQE3+Q6PEY2+Q13885+Q9BVA1+Q9BUF5). The series can be described thus: Induction of microtubule depolymerization in human K562 cells assessed as aggregation of microtubule fibers at 100 nM incubated for 24 hrs by confocal microscopic analysis. In kind it is cell-based.

For series [20], the target named is T1, Tubulin (Homo sapiens). The experiment in a line: Inhibition of microtubule polymerization in human K562 cells at 0.5 uM measured for 60 mins. In kind it is cell-based.
Series [21] has as its target Tubulin beta (Homo sapiens) (UniProt P68371+Q9H4B7+Q13509+P04350+Q3ZCM7+P07437+Q13885+Q9BVA1+Q9BUF5+A6NNZ2). The experiment in a line: Binding affinity to beta-tubulin colchicine binding site in human K562 cells assessed as inhibition of EBI-beta-tubulin adduct band formation preincubated for 2 hrs followed by EBI addition and measured after 1.5 hrs by EBI competition based Western blot analysis. In kind it is cell-based. Conditions: dose 0.2-25 µM, time 3.5 hrs. (A western blot detects proteins with antibodies after separation by electrophoresis.)

The target in series [22] is T1, Tubulin (Homo sapiens). The series can be described thus: Induction of microtubule depolymerization in human K562 cells at 500 nM incubated for 24 hrs by confocal microscopic analysis. In kind it is cell-based.
Where [23] appears, read: Homo sapiens, HeLa, 48 h, read-out: IC50.

Activity calls are given as the source filed them. The rule behind the calls is not given here.

For orientation: IC50 means the point on the concentration scale where inhibition reaches its midpoint. Turning to `COc1ccc(N(C)c2nc(C(F)(F)F)nc3cc(OC)c(OCCCN4CCCC4)cc23)cc1`, the half-inhibitory concentration (IC50) in series [1] (setting [23]) is 445 nM; in series [2], 2410 nM; in series [3] it was 172 nM; in series [4], 1570 nM.
Take `COc1ccc(N(C)c2nc(C(F)(F)F)nc3ccc(Cl)cc23)cc1`: the outcome in series [5], in series [6], in series [7], in series [9], in series [10] and in series [13] was Active. Also, the result in [14], in series [15] and in series [16] was Active. Moreover, the IC50 at 48 h in series [8] was determined as 323 nM. Also, the IC50 worked out at 332 nM in [1] (setting [23]), 294 nM in series [2], 143 nM in series [3] and 294 nM in series [4]. The selectivity ratio in [11] amounted to 1.1. Also, the values for the Activity in series [12] and in series [18] were 19.7% and 31%, respectively. In addition, the “Ratio IC50” value in series [17] came to 8.28.
For `COc1cc2c(c(OC)c1OC)-c1ccc(OC)c(=O)cc1[C@@H](NC(C)=O)CC2` [COLCHICINE], the IC50 in series [1] (setting [23]) is 15 nM; in [2], 975 nM; in series [3], 245 nM; in series [4], 156 nM.
For `C=CC(=O)Nc1cc(N(C)c2nc(C(F)(F)F)nc3ccc(F)cc23)ccc1OC`, in that order: 165 nM, 986 nM, 402 nM and 422 nM.
For `Cc1ccc2nc(C(F)(F)F)nc(N(C)c3ccc4c(ccn4C)c3)c2c1`, in that order: 1300 nM, 1210 nM, 945 nM and 992 nM.
`CN(c1ccc2c(ccn2C)c1)c1nc(C(F)(F)F)nc2ccc(F)cc12`: the result in series [5], in series [6], in series [10], in series [13], in series [14] and in series [15] was Active. Moreover, the IC50 at 48 h in [8] was 2830 nM. For the same compound, the IC50 in [1] (setting [23]) was 22 nM; in series [2], 450 nM; in series [3], 96 nM; in series [4], 363 nM. Further, in [11], the selectivity ratio came out at 6.29. Further, in [12], the Activity came out at 20.3%.
Consider `CNc1cc(N(C)c2nc(C(F)(F)F)nc3ccc(F)cc23)ccc1OC`, for which the IC50 in series [1] (setting [23]) amounted to 88 nM; in series [2] it was 2250 nM; in series [3], 668 nM; in [4], 273 nM.
For `CCNc1cc(N(C)c2nc(C(F)(F)F)nc3ccc(F)cc23)ccc1OC`, in that order: 201 nM, 2420 nM, 2560 nM and 6960 nM.
As for `COc1ccc(N(C)c2nc(C(F)(F)F)nc3cc(OC)c(O)cc23)cc1`, the IC50 result is “Not Active” in series [1] (hela), 2520 nM in series [2], 1630 nM in series [3] and 4520 nM in series [4].
Consider `CN(c1ccc2c(ccn2C)c1)c1nc(C(F)(F)F)nc2ccc(Cl)cc12`, for which the outcome in series [5], in series [7], in series [9], in series [13], in series [14] and in series [16] was Active. Further, the IC50 in [1] (setting [23]) stood at 335 nM; in series [2], 684 nM; in [3] it was 138 nM; in series [4], 89 nM. Also, the “Ratio IC50” value in series [17] came out at 3.45. The compound also gave an Activity in [18] of 28.5%.
For `CC(=O)O[C@H]1C(=O)[C@@]2(C)[C@H]([C@H](OC(=O)c3ccccc3)[C@]3(O)C[C@H](OC(=O)[C@H](O)[C@@H](NC(=O)c4ccccc4)c4ccccc4)C(C)=C1C3(C)C)[C@]1(OC(C)=O)CO[C@@H]1C[C@@H]2O` [PACLITAXEL], the result in series [19] was Active. Further, the concentration for half-maximal inhibition (IC50) in series [1] (setting [23]) was 6 nM; in [2] it was 874 nM; in series [3], 58 nM; in series [4] it was 200 nM.
As to `COc1ccc(N(C)c2nc(C(F)(F)F)nc3ccc(F)cc23)cc1NC(C)=O`, the concentration for half-maximal inhibition (IC50) came to 46 nM in series [1] (setting [23]), 1590 nM in series [2], 810 nM in series [3] and 1120 nM in series [4].
For `COc1ccc(N(C)c2nc(C(F)(F)F)nc3ccc(F)cc23)cc1NC(=O)CCl` the same measures were 37 nM, 1390 nM, 256 nM and 595 nM.
For `COc1cc2nc(C(F)(F)F)nc(N(C)c3ccc4c(ccn4C)c3)c2cc1O` the same measures were 1120 nM, 2260 nM, 481 nM and 468 nM.
On to `CCN(CC)c1cc(N(C)c2nc(C(F)(F)F)nc3ccc(F)cc23)ccc1OC`, for which the IC50 in series [1] (setting [23]) amounted to 8390 nM; in series [2], 21600 nM; in series [3] it was 13300 nM; in series [4], 11700 nM.
For the compound `Cc1ccc2nc(C(F)(F)F)nc(N(C)c3ccc(C(F)(F)F)cc3)c2c1`, the IC50 is 2870 nM in [1] (setting [23]), 1930 nM in [2], 2660 nM in [3] and 1400 nM in series [4].
Take `COc1ccc(N(C)c2nc(C(F)(F)F)nc3ccc(Cl)cc23)cc1[N+](=O)[O-]`: the result in series [5], in [6], in series [10], in series [13], in [14] and in [15] was Active. For the same compound, the IC50 at 48 h in series [8] is 570 nM. Further, the IC50 in [1] (setting [23]) is 1000 nM; in [2], 177 nM; in [3], 589 nM; in series [4], 397 nM. Further, in series [11], the selectivity ratio worked out at 3.22. Further, the Activity in [12] is listed as 12.7%.
Regarding `COc1ccc(N(C)c2nc(C(F)(F)F)nc3ccc(F)cc23)cc1`, the outcome in [5], in series [6], in series [7], in series [20], in series [9] and in [10] was Active. Moreover, the result in series [13], in [14], in [15], in [16] and in [22] was Active. In series [8], the IC50 at 48 h was 1950 nM. Also, the 50% inhibitory concentration (IC50) in series [1] (setting [23]) is 110 nM; in series [2], 265 nM; in [3], 377 nM; in series [4], 99 nM. For the same compound, the selectivity ratio in series [11] is 7.36. Also, the Activity was 19.9% in series [12], “Dose-Dependent Effect” in series [21] and 32.3% in series [18]. In addition, the “Ratio IC50” value in series [17] was 19.7.
Consider `COc1ccc(N(C)c2nc(C(F)(F)F)nc3ccc(Cl)cc23)c([N+](=O)[O-])c1`, for which the IC50 in series [1] (setting [23]) stood at 613 nM; in series [2], 2250 nM; in [3] it was 2590 nM; in [4], 1320 nM.
Take `COc1ccc(N(C)c2nc(C(F)(F)F)nc3ccc(C)cc23)cc1`: the outcome in [5], in series [7], in series [9], in series [13], in series [14] and in [16] was Active. Besides, the IC50 was 141 nM in series [1] (setting [23]), 3280 nM in series [2], 237 nM in [3] and 34 nM in series [4]. In series [17], the “Ratio IC50” value turned out to be 3.38. In series [18], this compound showed an Activity of 29.2%.
